According to PMC5365645, “Preclinical Pharmacokinetics and Pharmacodynamic Target of SCY-078, a First-in-Class Orally Active Antifungal Glucan Synthesis Inhibitor, in Murine Models of Disseminated Candidiasis” (Antimicrobial Agents and Chemotherapy, 2017):
Read-outs that look alike come from different tables or passages of the source.

Assays:
[1] = test system: C. glabrata isolate CG 5592; parameters: method as in PMID 25512406; details: stasis ref 6; cited from earlier work
C. albicans MY1055 = assay: Immediate treatment murine model of disseminated candidiasis
[2] = In vitro metabolic stability in hepatic microsomes; assay type: in vitro ADME, mouse; details: for remaining at 0.5 h, 1 µM: read-out: % remaining after 30 min; for half-life at 1 μM / microsomal CLint at 1 μM: pooled liver microsomes
Protocol: The metabolic stability of SCY-078 was assessed after incubation with mouse, rat, dog, and human liver microsomes (Table 2) ([10]). […] The half-lives in rodent, dog, and human liver microsomes were ≥125, ≥29, and ≥42 min, respectively.
The metabolic stability of SCY-078 was evaluated with male and female mouse, male rat, male and female dog, and mixed-gender human liver microsomes (XenoTech, Lenexa, KS). SCY-078 (1 μM) was incubated with pooled liver microsomes (0.5 mg protein/ml) for 0, 5, 10, 20, and 30 min at 37°C in the presence of NADPH. Aliquots were taken at each sampling time point and extracted with 5 volumes of ice-cold acetonitrile containing the internal standard (d9-SCY-078, 125 ng/ml). Supernatants from the incubation mixtures were analyzed for the parent compound by LC-MS/MS according to the conditions described below. The metabolic competency of microsomal preparations was established using the control compounds 7-ethoxycoumarin, propranolol, and verapamil. The in vitro intrinsic clearance (CLint), the CLint scaled to the in vivo intrinsic clearance (CL′int), and the half-life were determined for SCY-078 incubated with microsomes from each species.

[3] = Plasma protein binding by equilibrium dialysis, across species; assay type: in vitro ADME, and human; details: DBA (mouse), Sprague-Dawley (rat), beagle (dog), human, pH 7.4, range across species, 0.1 to 10 μM
Protocol: In vitro reversible protein binding and blood/plasma partition ratio were determined for SCY-078 in mouse, rat, dog, and human plasma and whole blood (Table 3). […] The unbound fraction of SCY-078 in plasma determined by means of equilibrium dialysis was 0.2 to 0.5% (99.8 to 99.5% bound) and appeared to be independent of concentration over the range studied (0.1 to 10 μM). Within the limitations of the assay method, binding perhaps appeared modestly higher in rodent plasma than in dog or human plasma; however, the study was not powered to identify differences between species.
Protein binding of [^3H]SCY-078 in mouse, rat, dog, and human plasma was determined by means of equilibrium dialysis and liquid scintillation counting. Tritium-labeled SCY-078 in ethanol was added to unlabeled SCY-078 in methanol to prepare stock solutions at 10, 100, and 1,000 μM SCY-078 with constant activity.
Protein binding was determined against isotonic phosphate-buffered saline (pH 7.4) at 37°C for 24 h. […] After incubation, aliquots (100 μl) of plasma and phosphate buffer were counted for radioactivity (Beckman LS6500 liquid scintillation counter), and unbound fractions of SCY-078 were estimated based on the following calculation: unbound fraction = radioactivity (dpm/0.1 ml) in buffer/total radioactivity (dpm/0.1 ml) in plasma.

[4] = Volume of distribution after i.v. administration; details: in vivo, iv, Rhesus monkey, no source reference printed, read-out: Vd ss
Source text: TABLE 7 Volume of distribution for SCY-078 and echinocandins after i.v. administration | column: Vd ss (liters/kg)^a / SCY-078

[5] = Solubility in simulated gastric and intestinal fluids; assay type: physicochemical; details: thermodynamic from solid, citrate salt form
Protocol: The solubility of SCY-078 was measured in simulated gastric fluid (SGF), fasted-state simulated intestinal fluid (FaSSIF), and fed-state intestinal fluid (FeSSIF) by Crystal Pharmatech (North Brunswick, NJ). In general, approximately 15 mg of solid was weighed into a 4-ml vial, 3.0 ml of medium was added, and the suspensions were stirred on a rolling incubator (25 rpm) at an ambient room temperature for 24 h. After incubation, 0.5 ml of suspension was centrifuged and filtered (0.45-μm pore size), and the concentration of SCY-078 was determined in the supernatant by high-pressure liquid chromatography (HPLC) with UV detection. The quantity of SCY-078 and the volume of medium was adjusted as required to determine the solubility in each medium.

in vivo = assay: in vivo; parameters: species or system female CD-1 mice; details: female, CD-1, mouse
Protocol: The pharmacokinetics and bioavailability of SCY-078 were evaluated in uninfected mouse, rat, and dog after p.o. and i.v. administration. The in vivo phases of the PK studies were performed at either […] (Waltham, MA) or MPI Research (Mattawan, MI) after an Institutional Animal Care and Use Committee (IACUC) review. […] and MPI Research are Association for Assessment and Accreditation of Laboratory Animal Care International (AAALAC)-approved facilities. […] The peak concentration (Cmax), the time to maximum concentration (Tmax), the half-life, and the AUC were determined from composite mean plasma concentration-time data for rodents and individual plasma concentration-time data for dogs. All doses and plasma concentrations of SCY-078 are presented as free base.

[6] = Study A, 6.25 mg/kg p.o. BID, day 7
[7] = Study A, 12.5 mg/kg p.o. BID, day 7
[8] = Study A, Efficacious: projected assuming linearity
[9] = Study B, 6.25 mg/kg p.o. BID, day 7
[10] = Study B, 12.5 mg/kg p.o. BID, day 7
[11] = Study B, Efficacious: projected assuming linearity
[12] = Study C, 6.25 mg/kg p.o. BID, day 7

## CC(C)[C@@H](C)[C@@]1(C)CC[C@]2(C)[C@H]3CC[C@@H]4[C@@]5(COC[C@@]4(C)[C@@H](OC[C@](C)(N)C(C)(C)C)[C@H](n4ncnc4-c4ccncc4)C5)C3=CC[C@@]2(C)[C@@H]1C(=O)O [SCY-078, (1S,4aR,6aS,7R,8R,10aR,10bR,12aR,14R,15R)-15-[[(2R)-2-amino-2,3,3-trimethylbutyl]oxy]-8-[(1R)-1,2-dimethylpropyl]-14-[5-(4-pyridinyl)-1H-1,2,4-triazol-1-yl]-1,6,6a,7,8,9,10,10a,10b,11,12,12a-dodecahydro-1,6a,8,10a-tetramethyl-4H-1,4a-propano-2H-phenanthro[1,2-c]pyran-7-carboxylic acid]
[1]
  Total drug AUC0–24 target: ~18.8 µM·h
C. albicans MY1055; [6]
  Kidney tissue burden: 2.78 log10 CFU/g of tissue
  Reduction from sham treatment: 3.69 log10 CFU/g of tissue
C. albicans MY1055; Study A, 6.25 mg/kg p.o. BID, day 7, five animals per group
  % animals sterilized: 40%
C. albicans MY1055; [7]
  Kidney tissue burden: 2.23 log10 CFU/g of tissue
  Reduction from sham treatment: 4.24 log10 CFU/g of tissue
C. albicans MY1055; Study A, 12.5 mg/kg p.o. BID, day 7, five animals per group
  % animals sterilized: 80%
C. albicans MY1055; [8]
  % animals sterilized: 60%
  Kidney tissue burden: 2.51 log10 CFU/g of tissue
  Reduction from sham treatment: 4 log10 CFU/g of tissue
C. albicans MY1055; [9]
  Kidney tissue burden: 3.52 log10 CFU/g of tissue
  Reduction from sham treatment: 3.35 log10 CFU/g of tissue
C. albicans MY1055; Study B, 6.25 mg/kg p.o. BID, day 7, five animals per group
  % animals sterilized: 0%
C. albicans MY1055; [10]
  Kidney tissue burden: 2.2 log10 CFU/g of tissue
  Reduction from sham treatment: 4.67 log10 CFU/g of tissue
C. albicans MY1055; Study B, 12.5 mg/kg p.o. BID, day 7, five animals per group
  % animals sterilized: 100%
C. albicans MY1055; [11]
  % animals sterilized: 50%
  Kidney tissue burden: 2.86 log10 CFU/g of tissue
  Reduction from sham treatment: 4.01 log10 CFU/g of tissue
C. albicans MY1055; [12]
  Kidney tissue burden: 2.61 log10 CFU/g of tissue
  Reduction from sham treatment: 4.35 log10 CFU/g of tissue
C. albicans MY1055; Study C, 6.25 mg/kg p.o. BID, day 7, five animals per group
  % animals sterilized: 60%
C. albicans MY1055; efficacy target, fraction bound 99.8% in mouse plasma
  Free-drug (f) AUC0–24: 0.0224 ± 0.0032 µg·h/mL
C. albicans MY1055; mean of immediate-treatment, delayed-single-dose and delayed-fractionated-dose models
  Mean therapeutic exposure (plasma AUC0–24) across all models: 14.3 µM·h
[2]; female mouse liver microsomes
  remaining at 0.5 h, 1 µM: 88%
  half-life at 1 μM: > 2.25 h
  microsomal CLint at 1 μM: < 10 µL/min/mg
[2]; male mouse liver microsomes
  remaining at 0.5 h, 1 µM: 95%
  half-life at 1 μM: > 2.25 h
  microsomal CLint at 1 μM: < 10 µL/min/mg
[3]
  fraction unbound at 24 h: 0.002 to 0.005
[4]
  Vd: 4.4 L/kg
[5]; fasted-state simulated intestinal fluid (FaSSIF), FaSSIF
  solubility at 24 h: > 4.2 mg/mL
[5]; fed-state simulated intestinal fluid (FeSSIF), FeSSIF
  solubility at 24 h: > 20 mg/mL
[5]; simulated gastric fluid (SGF), simulated gastric fluid, SGF
  solubility at 24 h: > 20 mg/mL
In vivo; 6.25 mg/kg
  bioavailability: > 41%
In vivo; 12 mg/kg
  bioavailability: > 51%
In vivo; iv
  Dose normalized AUC0–∞ to a 1-mg/kg dose: 1.4 µg·h/mL
In vivo; iv, 1 mg/kg
  AUC(0-inf): 1460 ng·h/mL
  Vd ss: 5.3 L/kg
  clearance: 11.3 mL/min/kg
In vivo; iv, 1 mg/kg, AUC0–24
  AUC(0-t): 1390 ng·h/mL
In vivo; iv, 1 mg/kg, Vd ss
  Vd: 5.26 L/kg
In vivo; iv, 1 mg/kg, t1/2
  half-life: ~5.5 h
In vivo; po
  concentration at 4 h: 1490 ± 690 ng/mL
In vivo; po, 6.25 mg/kg
  AUC(0-inf): 9560 ng·h/mL
  Cmax: 640 ng/mL
  Tmax: 4 h
  concentration at 12 h: 370 ± 60 ng/mL
In vivo; po, 6.25 mg/kg, AUC0–12
  AUC(0-t): 3110 ng·h/mL
In vivo; po, 6.25 mg/kg, AUC0–24
  AUC(0-t): 8360 ng·h/mL
In vivo; po, 6.25 mg/kg, Cmax
  Cmax: 390 ng/mL
In vivo; po, 6.25 mg/kg, t1/2
  half-life: 7.8 h
In vivo; po, 12 mg/kg
  AUC0–12: 15100 ng·h/mL
  AUC0–24: 22520 ng·h/mL
  AUC(0-inf): 28300 ng·h/mL
  Cmax: 1610 ng/mL
  Tmax: 6 h
  concentration at 12 h: 850 ± 220 ng/mL
In vivo; po, 12 mg/kg, AUC0–12
  AUC(0-t): 7580 ng·h/mL
In vivo; po, 12 mg/kg, AUC0–24
  AUC(0-t): 22500 ng·h/mL
In vivo; po, 12 mg/kg, Cmax
  Cmax: 900 ng/mL
In vivo; po, 12 mg/kg, Half-life in plasma
  half-life: ~8.3 h
In vivo; po, 12 mg/kg, t1/2
  half-life: 8.8 h
In vivo; po, 7 days
  Accumulation factor for AUC: ~2 fold
  Accumulation factor for Cmax: ~2 fold
